Measured values from patent US20100105764A1 (priority 2006, published 2010).
Like-named read-outs stand apart in the source and are kept apart here.

Columns and labels:
MCF-7WT tumours = assay: Study 1: MCF-7WT tumour growth in nude mice; assay type: in vivo; details: Study 1, A4 plus E2S stimulated; oral; letrozole 0.1 mg/kg, STX213 10 mg/kg p.o. 5/7 per week; FIG. 6
Protocol: (§1) Ovariectomised, athymic female MF-1 nude mice (nu/nu) (age 6-8 weeks) were obtained from Harlan Olac. Twenty four hours before the inoculation of MCF-7 cells animals were injected s.c. with androstenedione (A4) or estradiol sulfate (E2S). On the day of inoculation MCF-7 cells (50 μl in Matrigel) were injected s.c. into the flanks of mice. After cell inoculation mice were injected with A4 and E2S and received another injection of these steroids 24 h later. Mice then received A4 plus E2S 3 times per week until the end of the study. When tumours had reached approximately 80 mm^3 dosing was initiated with compounds being administered orally (100 μl; vehicle 10% THF: 90% propylene glycol). Tumour measurements and the weight of animals were recorded weekly.
(§2) MCF-7 cells were routinely cultured in RPMI with 10% FCS. The cDNAs for either the aromatase or STS were cloned into the pCl-Neo vector which contains the neomycin resistant gene and transfected into MCF-7 cells. Stable clones were selected using G418 and cell lines established and evaluated for enzyme expression and activity.
(§3) For this study MCF-7 cells over-expressing aromatase or STS were mixed and inoculated (5×10^6 cells) in Matrigel into the flanks of nude mice. A similar number of MCF-7WT cells were inoculated into the other flank. […]

[1] = system: MCF-7STS+MCF-7AROM tumours; assay: Study 1: MCF-7STS+MCF-7AROM tumour growth in nude mice; assay type: in vivo; details: Study 1, A4 plus E2S stimulated; oral; letrozole 0.1 mg/kg, STX213 10 mg/kg p.o. 5/7 per week; FIG. 6
Protocol: as §1, §2, §3

[2] = assay type: in vivo; details: for toxic effects (animal growth): Study 1, FIG. 7
Protocol: as §1
For this study MCF-7 cells over-expressing aromatase or STS were mixed and inoculated (5×10^6 cells) in Matrigel into the flanks of nude mice. A similar number of MCF-7WT cells were inoculated into the other flank. For this study growth of tumours was stimulated by s.c. injection of A4 (50 μg) and E2S (50 μg) in 50 μl vehicle.

[3] = system: tumours derived from MCF-7AROM cells; assay: Study 2: growth of tumours derived from MCF-7AROM cells in nude mice; assay type: in vivo; details: Study 2, A4 plus E2S stimulated; oral administration; letrozole 0.1 mg/kg; FIGS. 9-11
Protocol: as §1, §2
(§4) This study was similar to the previous one with the exception that MCF-7STS or MCF-7AROM cells (1×10^7) were inoculated into different flanks of the same animals. The doses of A4 and E2S were increased to 100 μg for each compound.

[4] = system: tumours derived from MCF-7STS cells; assay: Study 2: growth of tumours derived from MCF-7STS cells in nude mice; assay type: in vivo; details: Study 2, A4 plus E2S stimulated; oral administration; letrozole 0.1 mg/kg; FIGS. 9-11
Protocol: as §1, §2, §4

[5] = assay type: in vivo, mice
Protocol: as §1, §4

E1-STS [6] = target: T1, E1-STS (Homo sapiens, UniProt P08842); details: cited from earlier work
T1 sequence (P08842 22-583): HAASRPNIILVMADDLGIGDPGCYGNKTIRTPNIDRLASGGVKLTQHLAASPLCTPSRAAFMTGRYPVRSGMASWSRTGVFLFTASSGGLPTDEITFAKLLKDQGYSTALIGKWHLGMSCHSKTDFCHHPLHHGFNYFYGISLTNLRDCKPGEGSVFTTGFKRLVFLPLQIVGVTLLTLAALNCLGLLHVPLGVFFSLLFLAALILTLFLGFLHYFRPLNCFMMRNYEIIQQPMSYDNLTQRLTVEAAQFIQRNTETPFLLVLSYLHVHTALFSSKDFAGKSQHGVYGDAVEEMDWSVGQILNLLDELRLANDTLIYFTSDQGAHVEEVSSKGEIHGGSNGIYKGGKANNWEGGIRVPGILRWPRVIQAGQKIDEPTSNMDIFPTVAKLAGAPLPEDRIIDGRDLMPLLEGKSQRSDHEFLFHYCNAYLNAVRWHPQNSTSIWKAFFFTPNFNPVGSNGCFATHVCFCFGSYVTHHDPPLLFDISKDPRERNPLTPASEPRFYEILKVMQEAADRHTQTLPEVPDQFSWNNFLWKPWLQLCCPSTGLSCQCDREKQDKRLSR

[7] = rats; cited from earlier work
[8] = target: T2, dehydroepiandrosterone sulphatase (DHEA-STS) (Homo sapiens, UniProt P08842); details: cited from earlier work
T2 sequence (P08842 22-583): T1 sequence (P08842 22-583)

E1-STS [9] = target: T1, E1-STS; design: E1-STS activity in intact MCF-7 cells; endogenous in cells; host or cells: MCF-7 cells (intact); details: intact MCF-7 cells, at 0.1 nM; cited from earlier work
STS = target: T3, STS (Homo sapiens, UniProt P08842); assay: Phase I trial: STS activity in peripheral and tumour tissues; assay type: in vivo; details: postmenopausal women with breast cancer
T3 construct: STS activity in peripheral and tumour tissues in postmenopausal women with breast cancer; from tissue; host or cells: peripheral and breast tumour tissues of patients
T3 sequence (P08842 22-583): T1 sequence (P08842 22-583)
Source text: (§5) In addition to the aromatase pathway for the synthesis of estrogens in postmenopausal women, the sulfatase route is also important of the formation of steroids with potent estrogenic properties. Steroid sulfatase (STS) is responsible for the hydrolysis of estrone sulfate (E1S) and dehydroepiandrosterone sulfate (DHEAS) to estrone (E1) and DHEA respectively, which can be reduced in the body to estradiol (E2) and androstenediol (Adiol), both of which have potent estrogenic properties (FIGS. 3 & 4; reviewed in Reed et al., Endocrine Reviews, 256:171-202, 2005).

[10] = Phase I trial: serum steroid levels; assay type: in vivo; details: postmenopausal women with breast cancer
Source text: The assay for the determination of androstenedione, testosterone, E1 and E2 was the gas chromatographic tandem mass spectroscopic method of Wang et al., (2005). Recombinant cell ultra-sensitive bioassay for measurements of estrogens in postmenopausal women J Clin Endocrinol Metab 90: 1407-1413, 2005.
as §5, with “2005). […] This provides evidence for an aromatase independent pathway.” for “2005).”

[11] = system: tumours derived from MCF 7STS cells; assay type: in vivo; details: initial experiments, nude mice, FIG. 5

| Compound | growth of MCF-7WT tumours (MCF-7WT tumours) | growth of MCF-7STS+MCF-7AROM tumours [1] | toxic effects (animal growth) [2] | growth of tumours derived from MCF-7AROM cells [3] | growth of tumours derived from MCF-7STS cells [4] | mode of E1-STS inhibition (inactivation) (E1-STS [6]) | growth of tumours derived from MCF 7STS cells [11] | further results |
| --- | --- | --- | --- | --- | --- | --- | --- | --- |
| N#Cc1ccc(C(c2ccc(C#N)cc2)n2cncn2)cc1 [letrozole, reference compound] | some reduction of tumour growth | some reduction of tumour growth | Neither STX213 nor letrozole appeared to have any toxic effects | significant inhibition | did not affect the growth |  |  | tolerability, effects on animal weight ([5]; mouse, in vivo): well tolerated with no effects on animal weight |
| oestrone-3-N-sulphamate |  |  |  |  |  | weaker non-time-dependent inactivators |  |  |
| oestrone-3-S-sulphamate |  |  |  |  |  | weaker non-time-dependent inactivators |  |  |
| CC12CCC3c4ccc(OS(N)(=O)=O)cc4CCC3C1CCC2=O (stereo not shown) [EMATE, oestrone-3-sulphamate] |  |  |  |  |  | time- and concentration-dependent manner |  | effect on memory [7]: memory enhancing effect; inhibition of DHEA-STS [8]: also inhibits; inhibition of E1-STS activity (E1-STS [9]): more than 99% |
| NS(=O)(=O)Oc1ccc2c3c(c(=O)oc2c1)CCCCC3 [STX64] |  |  |  | significant inhibition | significant inhibition |  | could be inhibited | STS activity in peripheral and tumour tissues (STS): effectively blocked STS activity; levels of androstenedione [10]: reduced; levels of testosterone [10]: reduced; serum oestrogen concentrations [10]: reducing serum oestrogen concentrations; tolerability, effects on animal weight ([5]; Study 2, FIG. 12): well tolerated with no effects on animal weight |
| CCCN1C(=O)CC2C3CCc4cc(OS(N)(=O)=O)ccc4C3CC[C@]2(C)C1=O (stereo partly shown) [STX213] | significantly reduced the growth | significantly reduced the growth | Neither STX213 nor letrozole appeared to have any toxic effects |  |  |  | could be inhibited | toxicity as shown by body weight ([2]; Study 1, at the dose tested, FIG. 7): devoid of any toxicity |
